Legend:
[1] = test system: child with Fragile X syndrome; assay: Clinical case study, side effects, blood tests, blood ions and weight; type: in vivo, human
Method: This example is a case reports presenting the treatment by bumetanide of a child with Fragile X syndrome.
(§1) Starting from the 5 Jan. 2011, the child received bumetanide twice a day (0.5 mg morning and 0.5 mg evening) during three months. Several biological tests were made at baseline (D0) and then after 7 days (D7), one month (M1), two months (M2) and three months (M3) of treatment. They checked orthostatic hypotension, allergy, cramps, asthenia, diarrhea, myalgia, arthralgia, vertigo and nausea. Blood tests included γ-glutamyltransferase, transaminases, alkaline phosphatases, glycemia, uric acid and creatine, in addition to blood Na^+ and K^+.

FXS mice = assay: Isolation-induced ultrasonic vocalizations (USVs) at P8 after maternal pretreatment; type: in vivo, mouse
Text: To induce ultrasonic vocalizations, mouse pups were isolated individually from their mother on postnatal day 8, and were placed into an isolation box (23×28×18 cm) located inside a sound attenuating isolation cubicle (54×57×41 cm; Coulbourn Instruments, Allentown, Pa., USA), and evaluated for ultrasonic vocalizations during a three minute test. An ultrasound microphone (Avisoft UltraSoundGate Condenser microphone capsule […] Bioacoustics, Berlin, Germany), placed in the roof of the box, was sensitive to frequencies of 10 to 250 kHz. Vocalizations were recorded using the Avisoft Recorder software (version 4.2) with a sampling rate of 250 kHz in 16 bit format. For acoustical analysis, recordings were transferred to SASLab Pro (version 5.2; Avisoft Bioacoustics) and a fast Fourier transformation was conducted (512 FFT-length, 100% frame, Hamming window and 75% time window overlap). The accuracy of call detection was verified manually by an educated user. A Pearson correlation coefficient was computed to assess the relationship between Automatic and Manual analysis. There was 0.99 correlations between the two variables. A t postnatal day 8, waveform patterns of calls were examined in 45 sonograms from 4 groups of mice (WT, FXS, WT pretreated, FXS pretreated). Each call was identified as one of 10 distinct categories, and only the sonograms where mice emitted at least 50 calls were used for this evaluation. To test whether depolarizing actions of GABA were associated with neuronal excitation, the effect of the GABAA receptor agonist isoguvacine was tested. […] To test whether maternal treatment with bumetanide before delivery switches the action of GABA from excitatory to inhibitory in offsprings at P15, pregnant females were treated orally 1 day before delivery with bumetanide (2-2.5 mg/kg in drinking water) and juvenile offspring neurons recorded at P15. […] Therefore, excitatory actions of GABA during delivery produce long term deleterious effects on electrophysiological parameters of FXS juvenile neurons. In FXS mice, GABAergic inputs are excitatory and contribute to hyperexcitability of the network. Bumetanide decreases [Cl^-]i and consequently reduces contribution of excitatory GABAergic inputs in the overall network activity. Isolation and Ultrasonic vocalizations were induced in mice to determine behavioral effect of Bumetanide in a model of FXS. An increased probability of emitting downward and chevron calls in FXS pups than age matched WT (P8). This was rescued by maternal bumetanide pretreatment (FIG. 4, table 3). Therefore, elevated [Cl^-]i levels during delivery are involved in the pathogenesis of Fragile X syndrome.

[2] = test system: hippocampal CA3 pyramidal neurons; assay: Whole-cell recordings of spontaneous excitatory postsynaptic currents (sEPSCs) at P15 after maternal pretreatment; type: in vivo, mouse; conditions: FXS offspring P15, maternal pretreatment, −70 mV
Method: Standard whole-cell recordings were performed in coronal neocortical rat or mouse brain slices at room temperature (20-22° C.) from the soma of hippocampal CA3 neurons using an EPC-10 (HEKA Elektronik, Germany) amplifier and filtered at 3-10 kHz. The internal solution contained (in mM): 130 K-gluconate, 10 Na-gluconate, 4 NaCl, 4 MgATP, 4 phosphocreatine, 10 HEPES, and 0.3 GTP (pH 7.3 with KOH). Biocytin (final concentration 0.3-0.5%) was added to the pipette solution to label the neurons from which recordings were obtained. Neurons were visualized by using infrared DIC video microscopy. Spontaneous postsynaptic currents were recorded for […] at the reversal potentials for GABAergic currents (-70 mV). […] Stored data were analyzed using the Mini Analysis 6.0.3 (Synaptosoft Inc., […].) and Origin (MicroCal, Northampton, Mass.) software. […] Data are expressed as mean±S.E.M. To test whether depolarizing actions of GABA were associated with neuronal excitation, the effect of the GABAA receptor agonist isoguvacine was tested. […] To test whether maternal treatment with bumetanide before delivery switches the action of GABA from excitatory to inhibitory in offsprings at P15, pregnant females were treated orally 1 day before delivery with bumetanide (2-2.5 mg/kg in drinking water) and juvenile offspring neurons recorded at P15. […]

[3] = test system: child with Fragile X syndrome; assay: Clinical case study, efficacy scales (ABC, GRAM, CGI); type: in vivo, human; conditions: after 90 days, 0.5 mg twice a day
Method: as §1, with “This example is a case reports presenting the treatment by bumetanide of a child with Fragile X syndrome. Starting” for “Starting”, “K^+. Efficacy of the treatment was measured at baseline (D0) and after three months of treatment (M3) using the GRAM scale ([…] Regulation Adaptation Modulation) for analyzing the dysregulation of the activity in a child; the ABC scale (Aberrant Behavior Checklist) for assessing problem behaviors of children and adults with mental retardation; and the CGI scale (Clinical Global Impression) for assessing the clinical amelioration in a patient following a therapeutic treatment.” for “K^+.”

## CCCCNc1cc(C(=O)O)cc(S(N)(=O)=O)c1Oc1ccccc1 [bumetanide]
[1]; 1 month (M1) of treatment
  Weight: 25.1 kg
  blood K^+: 4.3 mmol/L
  blood Na^+: 139 mmol/L
[1]; 2 months (M2) of treatment
  Weight: 25.4 kg
  blood K^+: 3.5 mmol/L
  blood Na^+: 140 mmol/L
[1]; 3 months (M3) of treatment
  Weight: 25.7 kg
  blood K^+: 3.6 mmol/L
  blood Na^+: 139 mmol/L
[1]; 3 months of treatment
  Natremia (in words): unaltered
  body weight (in words): not altered
[1]; 3 months of treatment, inferior limit 3.5 mmol/1
  blood K^+ (in words): reduced to a value close to the inferior limit
[1]; 7 days (D7) of treatment
  Weight: 25.2 kg
  blood K^+: 3.6 mmol/L
  blood Na^+: 143 mmol/L
[1]; orthostatic hypotension, allergy, cramps, asthenia, diarrhea, myalgia, arthralgia, vertigo, nausea, 3 months
  side effect in clinical examination: no side effect
[1]; γ-glutamyltransferase, transaminases, alkaline phosphatases, glycemia, uric acid, creatine, 3 months
  Conventional blood tests: unaffected
FXS mice; P8 FXS mice
  Chevron calls, isolation-induced USVs: 0.6 ± 0.1 (n = 13)
  Downward calls, isolation-induced USVs: 10.2 ± 1.4 (n = 13)
FXS mice; P8 FXS pups
  Increased probability of downward and chevron calls (in words): rescued
FXS mice; P8 WT mice
  Chevron calls, isolation-induced USVs: 0.5 ± 0.3 (n = 9)
  Downward calls, isolation-induced USVs: 13.5 ± 2.8 (n = 9)
[2]
  ongoing activity and frequency of glutamatergic sEPSCs (in words): significantly reduced
[3]
  CGI result: 2
[3]; baseline 41
  ABC results (Aberrant Behavior Checklist): 27
[3]; baseline 56
  GRAM results: 31

Reference: patent publication US10201507B2, “Modulators of intracellular chloride concentration for treating fragile X syndrome” (NEUROCHLORE, priority 2012, dated 2019)
